Measurements from patent publication US12370152B2, “Pharmaceutical composition for preventing or treating metabolic diseases” (INDUSTRY ACADEMIC COOPERATION FOUNDATION CHOSUN UNIVERSITY, priority 2021, dated 2025).

What was measured:
SIRT1, AMPK and ACC = assay: Western blot of SIRT1, AMPK and ACC in HepG2 cells; format: cell-based
Method: (§1) HepG2 hepatocytes were cultured in low glucose Dulbecco's modified Eagle medium (DMEM) (Gibco, Life Technologies, Grand Island, NY, USA) to which 10% FBS (Gibco, Life Technologies, USA), L-glutamine, and 1% penicillin/streptomycin solution were added. The cells were manipulated in a humidified incubator at 37° C. containing 5% CO2 under a sterile condition. The cells were sub-cultured as soon as they reached confluence. The cells were continuously monitored under a bright-field microscope (Nikon Eclipse TS100, Tokyo, Japan), and the medium was replaced every 3 days. For cell viability assays, the cells were seeded and treated with 0 μM-2000 μM camphorquinone (CQ) for 24 hours, then incubated in MTT solution (0.5 mg/ml) for 2 hours, and then formazan crystals were dissolved using dimethyl sulfoxide (DMSO). Cell viability was evaluated using a spectrophotometer (Multiskan FC, Thermo Fisher Scientific).
(§2) Total proteins were extracted with a RIPA lysis buffer system including phenylmethylsulfonyl fluoride (PMSF), sodium orthovanadate (Na3VO4) and protease inhibitor cocktail (Santa Cruz Biotechnology) at 4° C. for 30 minutes, and the extracted sample was centrifuged at 16,000×g for 20 minutes. The concentration of total proteins was quantified using a Pierce BCA Protein Assay Kit (Thermo Fisher Scientific). The proteins (30 to 50 μg) were loaded and separated through sodium dodecyl sulfate-polyacrylamide gel electrophoresis (SDS-PAGE), and then blotted with a PVDF membrane (GE Healthcare, Germany). In order to prevent nonspecific binding of the primary antibodies, the membrane was blocked with TBST including 1% non-fat dry milk for 1 hour and 30 minutes at room temperature (RT). Then, the membrane was incubated overnight at 4° C. together with each primary antibody. The secondary antibodies were conjugated with horseradish peroxidase and visualized with an enhanced chemiluminescence detection kit (GE Healthcare). Analysis of density measurement was performed using Image J software.

LKB1, PGC1a and CRTC2 = assay: Expression of LKB1, PGC1a and CRTC2 in liver of diabetic mouse model; format: in vivo, C57BL/6 mice; settings: CQ treatment vs HFD+STZ-treated HFD mouse group
Method: (§3) 6-week-old male C57BL/6 mice (weight 22±2 g) were purchased from Samtako Bio Korea Co., Ltd. (Osan, Gyeonggi-do, Korea). The mice were maintained at 23 to 25° C. under a 12 h light-dark cycle with free access to food and water in a pathogen-free animal facility center. All animal experiments were approved in accordance with the Chosun University Institutional Animal Care and Use Committee (CIACUC2020-S0009). All animals were fed normal chow pellets (ND, SAM #31, Samtako, Inc.), and went through a period of adjustment for 1 week. During the following week, the animals were randomly classified according to the body weight, and one-third of the animals were classified as normal controls to be fed normal chow pellets throughout the study. On the other hand, the remaining animals were fed a high-fat diet (HFD; 60% Kcal energy as fat) (study diet; #D12492; New Brunswick, NJ 08901 USA) for 2 weeks in order to induce insulin resistance, and the diet was continued until the study ended. Then, STZ (30 mg/kg, i.p.) was administered to the animals for 5 consecutive days from the 4th week to induce T2DM therein. On the other hand, the normal control animals were administered the same volume of citrate buffer instead of the STZ. Blood glucose levels of the animals were measured at the end of week 5, and animals showing a fasting blood glucose level (FBG)≥200 mg/dl were selected for the study. Finally, the animals were divided into the following 4 groups; Group 1: saline-treated normal control mice (Control), Group 2: saline-treated diabetic control mice (HFD), Group 3: camphorquinone (10 mg/kg/day, i.p.)-treated diabetic mice (CQ-L), and Group 4: camphorquinone (30 mg/kg/day, i.p.)-treated diabetic mice (CQ-H). […]
(§4) Total RNA was separated from liver tissue of the mouse model using RNAisoPlus (Takara). Then, total RNA (2.5 μg) was reverse transcribed using a Primescript™ II 1st strand cDNA synthesis kit (Takara), and quantified using a Power SYBR Green PCR Master mix (Applied BioSystems). […]

[1] = test system: HFD+STZ-induced type 2 diabetic mice; assay: Fasting blood glucose in HFD+STZ-induced type 2 diabetic mice; format: in vivo, C57BL/6 mice; settings: 3 weeks, vs HFD+STZ-treated mice
Method: as §3, with “study.” for “study. Finally, the animals were divided into the following 4 groups; Group 1: saline-treated normal control mice (Control), Group 2: saline-treated diabetic control mice (HFD), Group 3: camphorquinone (10 mg/kg/day, i.p.)-treated diabetic mice (CQ-L), and Group 4: camphorquinone (30 mg/kg/day, i.p.)-treated diabetic mice (CQ-H).”

[2] = test system: HFD+STZ-induced type 2 diabetic mice; assay: Body weight and liver weight in HFD+STZ-induced type 2 diabetic mice; format: in vivo, C57BL/6 mice; settings: CQ-L, 10 mg/kg/day i.p., 3 weeks
Method: as §3, with “study.” for “study. Finally, the animals were divided into the following 4 groups; Group 1: saline-treated normal control mice (Control), Group 2: saline-treated diabetic control mice (HFD), Group 3: camphorquinone (10 mg/kg/day, i.p.)-treated diabetic mice (CQ-L), and Group 4: camphorquinone (30 mg/kg/day, i.p.)-treated diabetic mice (CQ-H).”

[3] = test system: HFD+STZ-induced type 2 diabetic mice; assay: Glucose tolerance test in HFD+STZ-induced type 2 diabetic mice; format: in vivo, C57BL/6 mice; settings: 1.5 g/kg d-glucose i.p., within 2 hours, vs HFD mouse group
Method: as §3, with “study.” for “study. Finally, the animals were divided into the following 4 groups; Group 1: saline-treated normal control mice (Control), Group 2: saline-treated diabetic control mice (HFD), Group 3: camphorquinone (10 mg/kg/day, i.p.)-treated diabetic mice (CQ-L), and Group 4: camphorquinone (30 mg/kg/day, i.p.)-treated diabetic mice (CQ-H).”

LKB1 and ERK = LKB1 and ERK signals in liver tissue of diabetic mouse model; format: in vivo, C57BL/6 mice; settings: vs HFD mouse group
Method: as §2
as §3, with “study.” for “study. Finally, the animals were divided into the following 4 groups; Group 1: saline-treated normal control mice (Control), Group 2: saline-treated diabetic control mice (HFD), Group 3: camphorquinone (10 mg/kg/day, i.p.)-treated diabetic mice (CQ-L), and Group 4: camphorquinone (30 mg/kg/day, i.p.)-treated diabetic mice (CQ-H).”

[4] = test system: lipid synthesis marker (ChREB) and lipid β-oxidation markers (CES1, CES2 and CPT1A); assay: qRT-PCR of lipid metabolism genes in FFA-treated cell model; format: cell-based
[5] = test system: IL1α, IL1β, IL6, p53, TNFα and RAGE; assay: qRT-PCR of inflammatory markers in liver of diabetic mouse model; format: in vivo, C57BL/6 mice; settings: CQ-L, 10 mg/kg/day i.p., vs HFD mouse group
Method: 6-week-old male C57BL/6 mice (weight 22±2 g) were purchased from Samtako Bio Korea Co., Ltd. (Osan, Gyeonggi-do, Korea). The mice were maintained at 23 to 25° C. under a 12 h light-dark cycle with free access to food and water in a pathogen-free animal facility center. All animal experiments were approved in accordance with the Chosun University Institutional Animal Care and Use Committee (CIACUC2020-S0009). All animals were fed normal chow pellets (ND, SAM #31, Samtako, Inc.), and went through a period of adjustment for 1 week. During the following week, the animals were randomly classified according to the body weight, and one-third of the animals were classified as normal controls to be fed normal chow pellets throughout the study. […] Blood glucose levels of the animals were measured at the end of week 5, and animals showing a fasting blood glucose level (FBG)≥200 mg/dl were selected for the study. […]
as §4

AMPK and SIRT1 = assay: Immunoblotting of AMPK and SIRT1 in liver tissue of diabetic mouse model; format: in vivo, C57BL/6 mice; settings: vs HFD mouse group
Method: as §2
as §3, with “study.” for “study. Finally, the animals were divided into the following 4 groups; Group 1: saline-treated normal control mice (Control), Group 2: saline-treated diabetic control mice (HFD), Group 3: camphorquinone (10 mg/kg/day, i.p.)-treated diabetic mice (CQ-L), and Group 4: camphorquinone (30 mg/kg/day, i.p.)-treated diabetic mice (CQ-H).”

HepG2 cells = assay: MTT assay, cytotoxicity in HepG2 cells; format: cell-based; settings: 24 hours
Method: as §1

AMPK, SIRT1 and ACC = assay: Western blot of AMPK, SIRT1 and ACC in FFA-treated HepG2 fatty hepatocyte model; format: cell-based; settings: FFA-treated hepatocytes, 500 μM CQ 24 hours
Method: (§5) Free fatty acids (FFA) were prepared from a combination of palmitic acid (PA) and oleic acid (OA). In short, stocks of 100 mM palmitic acid and 100 mM oleic acid dissolved in sodium hydroxide were prepared. These stock solutions were conjugated with 10% BSA (1:9) solution. All stock solutions were stored at −20° C. The cells were seeded and attached to a 6-well plate, then the cells were treated with a mixture of 0.2 mM PA and 0.4 mM OA (1:2) for 24 hours or the same volume of 10% BSA solution for 24 hours. FFA was removed the next day and 500 μM of camphorquinone was added to the mixture and left for 24 hours. Thereafter, the plate was used for protein and oil red staining.
as §2

FFA-treated HepG2 cells = assay: Oil Red O staining, lipid accumulation in FFA-treated HepG2 cells; format: cell-based; settings: FFA-treated HepG2 cells (0.2 mM PA + 0.4 mM OA 24 hours), then 500 μM CQ 24 hours
Method: as §5
Oil Red O stock solution dissolved in isopropyl alcohol was prepared by magnetic stirring at room temperature for 2 hours, and the prepared solution was stored at room temperature. Then, Oil Red O working solution was prepared by mixing 1.5 parts of stock solution and 1 part of water (3:2), and incubated at 4° C. for 10 minutes. The solution was filtered through a 0.02 μm filter and used within 6 hours. […] The stained lipid droplets were dissolved in 2-propanol, and absorbance at 520 nm was measured to quantify lipid accumulation.

[6] = test system: SREBP1, FASN, ChREB, CPT1a and CPT1b; assay: qRT-PCR of lipid production and β-oxidation genes in liver of diabetic mouse model; format: in vivo, C57BL/6 mice; settings: CQ-L, 10 mg/kg/day i.p., vs HFD mouse group
Method: as §3, §4

[7] = by treatment concentration of CQ

## c1cc(-c2cnn3cc(-c4ccc(OCCN5CCCCC5)cc4)cnc23)ccn1 [Compound C, reference compound]
SIRT1, AMPK and ACC; CC treatment together with CQ
  CQ-induced ACC protein expression: significantly decreased
  CQ-induced AMPK protein expression: significantly decreased
  CQ-induced SIRT1 protein expression: significantly decreased

## CC12CCC(C(=O)C1=O)C2(C)C (stereo not drawn) [camphorquinone]
LKB1, PGC1a and CRTC2
  expression of CRTC2 in liver: increased
  expression of LKB1 in liver: increased
  expression of PGC1a in liver: increased
[1]; CQ-H, 30 mg/kg/day i.p.
  fasting blood glucose levels: significantly decreased
[1]; CQ-L, 10 mg/kg/day i.p.
  fasting blood glucose levels: significantly decreased
[2]
  body weight: gradually decreased
  liver weight: gradually decreased
[3]; CQ-H, 30 mg/kg/day i.p.
  glucose tolerance: improved
[3]; CQ-L, 10 mg/kg/day i.p.
  glucose tolerance: improved
SIRT1, AMPK and ACC; CQ at 500 μM, increase was decreased at the high concentration
  SIRT1, AMPK and ACC expression: significant increase
SIRT1, AMPK and ACC; [7]
  ACC expression: significantly increased in a dose-dependent manner
  AMPK expression: significantly increased in a dose-dependent manner
  SIRT1 expression: significantly increased in a dose-dependent manner
LKB1 and ERK; CQ-H, 30 mg/kg/day i.p.
  ERK marker in liver tissue: highly expressed
  LKB1 marker in liver tissue: highly expressed
LKB1 and ERK; CQ-L, 10 mg/kg/day i.p.
  ERK marker in liver tissue: highly expressed
  LKB1 marker in liver tissue: highly expressed
[4]
  expression of lipid β-oxidation marker: increased
  expressions of lipid synthesis markers: decreased
[5]
  expressions of most inflammatory markers in the liver (IL1α, IL1β, IL6, p53, TNFα and RAGE): significantly decreased
AMPK and SIRT1; CQ-H, 30 mg/kg/day i.p.
  AMPK in liver tissue: activated
  SIRT1 in liver tissue: activated
AMPK and SIRT1; CQ-L, 10 mg/kg/day i.p.
  AMPK in liver tissue: activated
  SIRT1 in liver tissue: activated
HepG2 cells; at a high concentration (above 500 μM; 0-2000 μM tested)
  cell viability (MTT assay): decreased
HepG2 cells; up to 500 μM
  cytotoxicity (MTT assay): No cytotoxicity
AMPK, SIRT1 and ACC
  activation of ACC: restored
  activation of AMPK: restored
  activation of SIRT1: restored
FFA-treated HepG2 cells
  lipid accumulation (Oil red O staining): reduced
[6]
  expression of FASN (lipid production) in liver: significantly decreased
  expression of SREBP1 (lipid production) in liver: significantly decreased
  expression of the lipid β-oxidation gene CPTa in liver: significantly increased
